The source of these data is PMC7411735, “New Terpendole Congeners, Inhibitors of Sterol O-Acyltransferase, Produced by Volutella citrinella BF-0440” (Molecules, 2020).

The target of one test is T1, human SOAT1 (Homo sapiens, UniProt P35610).
T1 construct: expressed in transfected cells; host or cells: CHO AC29 (SOAT-deficient) cells
T1 sequence (P35610 1-550): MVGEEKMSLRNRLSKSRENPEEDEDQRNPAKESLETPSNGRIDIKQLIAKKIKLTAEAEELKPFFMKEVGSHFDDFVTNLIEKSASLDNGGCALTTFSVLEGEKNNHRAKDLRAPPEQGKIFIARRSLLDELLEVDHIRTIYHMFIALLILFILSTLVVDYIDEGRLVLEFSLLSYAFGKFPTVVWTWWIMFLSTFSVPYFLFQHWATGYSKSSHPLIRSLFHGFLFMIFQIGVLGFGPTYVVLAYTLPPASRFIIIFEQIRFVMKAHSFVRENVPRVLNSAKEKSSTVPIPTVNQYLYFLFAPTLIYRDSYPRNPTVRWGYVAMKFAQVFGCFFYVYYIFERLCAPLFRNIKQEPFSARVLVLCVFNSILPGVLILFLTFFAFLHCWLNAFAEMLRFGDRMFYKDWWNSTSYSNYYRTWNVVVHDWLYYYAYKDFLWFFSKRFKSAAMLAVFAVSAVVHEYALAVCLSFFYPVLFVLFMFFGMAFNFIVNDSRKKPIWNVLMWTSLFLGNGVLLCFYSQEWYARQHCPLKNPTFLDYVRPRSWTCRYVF
The test can be described thus: SOAT1 activity in SOAT1-CHO cells ([14C]CE formation from [1-14C]oleic acid). The format is cell-based. Particulars: for pIC50: n ≧ 3.

For test [1], the target named is T2, human SOAT2 (Homo sapiens, UniProt O75908).
T2 construct: expressed in transfected cells; host or cells: CHO AC29 (SOAT-deficient) cells
T2 sequence (O75908 1-522): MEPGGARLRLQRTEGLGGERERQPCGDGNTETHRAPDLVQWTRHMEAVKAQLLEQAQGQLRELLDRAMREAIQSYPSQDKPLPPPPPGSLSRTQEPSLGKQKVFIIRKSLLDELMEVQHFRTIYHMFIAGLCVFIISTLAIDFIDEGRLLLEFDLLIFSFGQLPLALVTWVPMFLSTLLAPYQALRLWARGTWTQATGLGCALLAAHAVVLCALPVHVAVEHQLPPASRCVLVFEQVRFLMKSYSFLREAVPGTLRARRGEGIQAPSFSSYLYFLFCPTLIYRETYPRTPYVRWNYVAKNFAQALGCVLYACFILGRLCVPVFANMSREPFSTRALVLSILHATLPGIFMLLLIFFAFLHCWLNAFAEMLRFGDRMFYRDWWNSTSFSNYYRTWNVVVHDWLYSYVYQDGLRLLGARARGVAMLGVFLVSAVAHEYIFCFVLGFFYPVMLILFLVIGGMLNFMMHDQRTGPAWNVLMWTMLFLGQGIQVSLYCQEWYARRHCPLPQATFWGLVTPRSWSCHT
The test can be described thus: SOAT2 activity in SOAT2-CHO cells ([14C]CE formation from [1-14C]oleic acid). Particulars: for pIC50: n ≧ 3. The format is cell-based.
Experimental: (§1) CHO cells (AC29 cells, SOAT-deficient cells) expressing the SOAT1 or SOAT2 genes from human were cultured using a previously described method [17].
(§2) Assays for human SOAT1 and SOAT2 activities using SOAT1- and SOAT2-CHO cells were performed using our established method [11, 17]. […] At least 80% confluent cells were used for assays. […] After a 6-h incubation at 37 °C in 5% CO2, medium was removed, and the cells in each well were washed twice with PBS. Cells were lysed by adding 0.25 mL of 10 mM Tris-HCl (pH 7.5) containing 0.1% (w/v) sodium dodecyl sulfate, and [^14C]CE was analyzed using a FLA-7000 analyzer (Fuji Film). In this cell-based assay, [^14C]CE was produced by the reaction of SOAT1 or SOAT2. SOAT inhibitory activity (%) is defined as ([1-^14C]CE-drug/[^14C]CE-control) × 100.

In test [2] the test system is human SOAT2. The test is described as above. The format is cell-based. Particulars: classified by SI.
Experimental: as §1, §2
Test [3] relates to human SOAT2. Details: method as in PMID 32467602. Particulars: classified by SI; cited from earlier work.
Test [4] addresses T2, human SOAT2. Details: method as in PMID 32467602. Particulars: SOAT2-CHO cells; cited from earlier work.
Test [5] has as its system African green monkey SOAT1. Details: method as in PMID 16629409. Particulars: African green monkey SOAT1-CHO cells; cited from earlier work.
In test [6] the test system is African green monkey SOAT2. Further details: method as in PMID 16629409. Particulars: cited from earlier work.
In another test the test system is SOAT2. Details: method as in PMID 17390588. Particulars: cited from earlier work.
Setting [7] is: IC50 SOAT1, human SOAT1-CHO cells.
The mark [8] stands for this setting: IC50 SOAT2, human SOAT2-CHO cells.
Setting [9] is: SAR comparison: 4 vs 6 (R5), 8 vs 11 (R6).

pIC50: −log10 of the molar value. Read-outs that look alike come from different tables or passages of the source.

Experimental for human SOAT1: as §1, §2

As a reminder, the pIC50 is the IC50 on a negative log10 scale, so that one unit is a factor of ten. Take `CC(C)=CC1OC2C(OC3CCC4(C)C(C)(O)C(CC5(O)C(=O)Nc6cccc(CC7OC7(C)C)c65)CCC4(O)C34OC24)C(C)(C)O1` (stereo not shown) [Compound 1, Terpendole N]: the pIC50 on human SOAT1 (read-out: IC50 SOAT1, human SOAT1-CHO cells) was under 4.85; at human SOAT2 [1] (read-out: IC50 SOAT2, human SOAT2-CHO cells) it was under 4.85.

As for `CC(C)=C[C@H]1O[C@H]2[C@H]3O[C@@]34[C@H](CC[C@@]3(C)[C@@]4(O)CC[C@H]4Cc5c([nH]c6cccc(CC7OC7(C)C)c56)[C@@]43C)O[C@@H]2C(C)(C)O1` (stereo partly shown) [Compound 2, terpendole O], the pIC50 on human SOAT1 (setting [7]) was 5.55; on human SOAT2 [1] (setting [8]), 5.62. In addition, the Type of inhibitors entry in the test on human SOAT2 [2] was “dual (Dual with -1.0 < SI < +1.0)”.

In the case of `CC(C)=CCOC(C)(C)[C@H]1O[C@H]2CC[C@@]3(C)[C@]4(O[C@H]4C[C@H]4Cc5c([nH]c6ccccc56)[C@@]43C)[C@]23O[C@@H]3[C@@H]1O` [Compound 3, terpendole P], the pIC50 on human SOAT1 (setting [7]) was 5.23; against human SOAT2 [1] (setting [8]), 5.16. In the test on human SOAT2 [2], the Type of inhibitors entry is recorded as “dual (Dual with -1.0 < SI < +1.0)”.

Consider `CC(C)=C[C@H]1O[C@H]2[C@H]3O[C@@]34[C@H](CC[C@@]3(C)[C@@]4(O)CC[C@H]4C[C@@]5(O)c6c(CC7OC7(C)C)cccc6N[C@@]5(O)[C@@]43C)O[C@@H]2C(C)(C)O1` (stereo partly shown) [Compound 4, voluhemin A], for which the “enhancement of SOAT1 inhibitory activity relative to comparison compound” value on human SOAT1 (setting [9]) is recorded as “approximately 10 fold”. Further, the “enhancement of SOAT2 inhibitory activity relative to comparison compound” value on human SOAT2 [1] (setting [9]) is reported as “approximately 10 fold”. For the same molecule, the Type of inhibitors result with human SOAT2 [3] was “dual (Dual with -1.0 < SI < +1.0)”.

On to `CC(C)=C[C@H]1O[C@H]2[C@H]3O[C@@]34[C@@H](O[C@@H]2C(C)(C)O1)[C@H](O)C[C@@]1(C)[C@@]4(O)CC[C@H]2C[C@@]3(O)c4c(CC5OC5(C)C)cccc4N[C@@]3(O)[C@@]21C` (stereo partly shown) [Compound 6, NK12838], for which the pIC50 on human SOAT2 [4] was 5.46. In addition, the Type of inhibitors entry in the test with human SOAT2 [3] was “dual (Dual with -1.0 < SI < +1.0)”.

Take `CC(C)=C[C@H]1O[C@H]2[C@H]3O[C@@]34[C@H](CC[C@@]3(C)[C@@]4(O)CC[C@H]4Cc5c([nH]c6ccccc56)[C@@]43C)O[C@@H]2C(C)(C)O1` [Compound 7, terpendole C]: the pIC50 against human SOAT1 (setting [7]) was 5.70; against human SOAT2 [1] (setting [8]), 5.66. Also, the Type of inhibitors result in the test on human SOAT2 [2] is reported as “dual (Dual with -1.0 < SI < +1.0)”.

As for `CC(C)=CCOC(C)(C)[C@H]1O[C@H]2CC[C@@]3(C)[C@@H](CC[C@H]4Cc5c([nH]c6ccccc56)[C@@]43C)[C@]23O[C@@H]3[C@@H]1O` [Compound 8, terpendole D], the results for the pIC50 against human SOAT1 (setting [7]) and against human SOAT2 [1] (setting [8]) were 6.10 and 5.68, respectively. Besides, the Type of inhibitors entry in the test on human SOAT2 [2] was “dual (Dual with -1.0 < SI < +1.0)”.

In the case of `CC(C)=CCc1cccc2[nH]c3c(c12)C[C@@H]1CC[C@@]2(O)[C@@]45O[C@@H]4[C@@H]4O[C@H](C=C(C)C)OC(C)(C)[C@H]4O[C@H]5CC[C@]2(C)[C@@]31C` [Compound 9, terpendole L], the negative-log IC50 (pIC50) was 5.17 against human SOAT1 (setting [7]) and 5.74 against human SOAT2 [1] (setting [8]). Moreover, the Type of inhibitors entry in the test with human SOAT2 [2] is “dual (Dual with -1.0 < SI < +1.0)”.

Take `CC(C)=CCc1cccc2[nH]c3c(c12)C[C@@H]1CC[C@@]2(O)[C@@]45O[C@@H]4[C@H](O)[C@@H](C(C)(C)O)O[C@H]5CC[C@]2(C)[C@@]31C` [Compound 10, tolypocladin A]: the pIC50 at human SOAT1 (human SOAT1-CHO cells, read-out: IC50 SOAT1) is under 4.74; on human SOAT2 [1] (human SOAT2-CHO cells, read-out: IC50 SOAT2), under 4.74.

For the molecule `CC(C)=CCOC(C)(C)[C@H]1O[C@H]2CC[C@@]3(C)[C@@](O)(CC[C@H]4Cc5c([nH]c6ccccc56)[C@@]43C)[C@]23O[C@@H]3[C@@H]1O` [Compound 11, terpendole J], the pIC50 is 4.73 on human SOAT1 (setting [7]) and 4.97 against human SOAT2 [1] (setting [8]). Further, the Type of inhibitors entry in the test on human SOAT2 [2] is “dual (Dual with -1.0 < SI < +1.0)”.

In the case of `CC(C)=CCc1c([C@H](O)C2OC2(C)C)ccc2[nH]c3c(c12)C[C@@H]1CC[C@@]2(O)C(C)(C)C(=O)CC[C@]2(C)[C@@]31C` (stereo partly shown) [Compound 12, sespendole], the pIC50 is 4.92 in test [5] and 5.19 in test [6] (African green monkey SOAT2-CHO cells). The Type of inhibitors result in test [6] (classified by SI, African green monkey SOAT1 and SOAT2-CHO cells) was “dual (Dual with -1.0 < SI < +1.0)”.

Consider pyripyropene A, for which, in the test with SOAT2, the SOAT isozyme selectivity result is “highly selective SOAT2 inhibitor”.
